Reference: patent US6403575B1, “3-Pyridyl enantiomers and their use as analgesics” (Abbott Laboratories, priority 1996, dated 2002)
Structures can show the parent of a compound that is named as a salt. Where two headings read alike, the source gives them in different places.

Assays:
[1] = target: T1, neuronal nicotinic acetylcholine receptors (Rattus norvegicus, UniProt P09483+P12390); test: [3H]-cytisine binding to neuronal nicotinic acetylcholine receptors, whole rat brain membranes
T1 construct: crude synaptic membrane preparations from whole rat brain; from tissue; host or cells: whole rat brain, crude synaptic membranes
T1 sequence (P09483 31-630): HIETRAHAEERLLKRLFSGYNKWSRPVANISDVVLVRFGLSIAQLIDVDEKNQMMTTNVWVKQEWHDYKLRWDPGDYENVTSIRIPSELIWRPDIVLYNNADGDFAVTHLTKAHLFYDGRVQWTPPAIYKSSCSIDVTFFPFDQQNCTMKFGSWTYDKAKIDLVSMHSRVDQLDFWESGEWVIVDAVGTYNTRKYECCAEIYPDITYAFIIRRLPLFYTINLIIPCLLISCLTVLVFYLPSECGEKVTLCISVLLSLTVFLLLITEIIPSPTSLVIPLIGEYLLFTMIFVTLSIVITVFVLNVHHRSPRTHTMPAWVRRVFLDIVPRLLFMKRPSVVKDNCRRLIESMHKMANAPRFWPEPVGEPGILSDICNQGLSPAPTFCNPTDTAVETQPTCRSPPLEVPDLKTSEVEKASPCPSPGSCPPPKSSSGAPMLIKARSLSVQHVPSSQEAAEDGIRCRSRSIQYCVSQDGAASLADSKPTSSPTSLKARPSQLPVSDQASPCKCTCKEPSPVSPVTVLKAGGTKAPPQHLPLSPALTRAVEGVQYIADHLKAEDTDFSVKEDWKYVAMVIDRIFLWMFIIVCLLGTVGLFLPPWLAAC
T1 sequence (P12390 25-500): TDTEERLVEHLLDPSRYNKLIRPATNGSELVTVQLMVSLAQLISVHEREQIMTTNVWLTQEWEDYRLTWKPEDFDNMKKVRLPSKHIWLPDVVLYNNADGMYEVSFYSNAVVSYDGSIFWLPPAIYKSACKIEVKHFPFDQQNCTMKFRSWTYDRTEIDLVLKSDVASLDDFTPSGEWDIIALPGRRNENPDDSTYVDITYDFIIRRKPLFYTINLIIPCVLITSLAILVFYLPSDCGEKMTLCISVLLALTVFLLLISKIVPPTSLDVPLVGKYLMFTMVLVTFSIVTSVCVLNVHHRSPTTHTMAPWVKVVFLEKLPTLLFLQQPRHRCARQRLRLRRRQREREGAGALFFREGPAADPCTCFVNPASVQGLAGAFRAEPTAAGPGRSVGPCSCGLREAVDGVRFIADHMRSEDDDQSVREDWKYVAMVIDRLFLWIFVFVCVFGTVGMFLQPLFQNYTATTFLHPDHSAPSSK
Method: Protocol for Determination of Nicotinic Acetylcholine Channel Receptor Binding Potencies of Ligands
Binding of [^3H]-cytisine ([^3H]-CYT) to neuronal nicotinic acetylcholine receptors was accomplished using crude synaptic membrane preparations from whole rat brain (Pabreza et al., Molecular Pharmacol., 1990, 39:9). Washed membranes were stored at −80° C. prior to use. Frozen aliquots were slowly thawed and resuspended in 20 volumes of buffer (containing: 120 mM NaCl, 5 mM KCl, 2 mM MgCl2, 2 mM CaCl2 and 50 mM Tris-Cl, pH 7.4 @4° C.). After centrifuging at 20,000×g for 15 minutes, the pellets were resuspended in 30 volumes of buffer. Homogenate (containing 125-150 μg protein) was added to triplicate tubes containing concentrations of test compound and [^3H]-CYT (1.25 nM) in a final volume of 500 μL. Samples were incubated for 60 minutes at 4° C., then rapidly filtered through Whatman GF/B filters presoaked in 0.5% polyethyleneimine using 3×4 mL of ice-cold buffer. The filters are counted in 4 mL of Ecolume® (ICN). Nonspecific binding was determined in the presence of 10 μM (−)-nicotine and values were expressed as a percentage of total binding.

mice = test: Mouse Hot Plate Paradigm; type: in vivo; parameters: key to MED Hot plate model (μmol/kg, i.p.): NS = no significant effect observed relative to saline controls at the doses tested; details: 30 minutes prior to testing, 55° C.; for minimal effective dose: ip, 0.5 h, i.p., read-out: MED Hot plate model (μmol/kg, i.p.)
[2] = dog, in vivo; for AUD0. / Cmax / Tmax / t½: po; for Cmax / Tmax / t½: 200 nmol/kg
Method: Beagle dogs were fasted overnight prior to dosing but were permitted free access to water. Each of the prodrugs was administered to a group of three animals at a dose of 200 nmol/kg. The formulation was adminstered by oral gavage. The prodrugs were prepared as 200 nmol/ml (1 ml/kg) solutions in normal saline. Blood samples from a jugular vein of each dog prior to dosing and 0.17, 0.33, 0.5, 0.75, 1, 1.5, 2, 3, 4, 6 and 8 hours after drug administration.

[3] = [3H]-cytisine 1.25 nM, whole rat brain membranes, read-out: [3H] CYT Ki

For CCCCc1cc(OC[C@@H]2CCN2)cnc1Cl [Example 29, 3-Butyl-2-chloro-5-((2S)-azetidinylmethoxy)pyridine hydrochloride], the Ki [1, 3] was 0.16 nM and the “MED Hot plate model (μmol/kg, i.p.)” value (mice) was “NS”.

Work on Cc1cc(OC[C@@H]2CCN2)cnc1Cl [Example 25, 2-Chloro-3-methyl-5-(2-(S)-azetidinylmethoxy)pyridine citrate] yielded a Ki [1, 3] of 0.05 nM and a minimal effective dose (mice) of 0.062 µmol/kg.

In the case of C=Cc1cc(OC[C@@H]2CCN2)cnc1F [Example 131, 5-(2-(S)-Azetidinylmethoxy)-3-ethenyl-2-fluoropyridine tosylate], the Ki [1, 3] is reported as 0.13 nM.

For Cl.Cl.c1cncc(OC[C@H]2CCN2)c1 [Example 6, (R)-3-(2-Azetidinylmethyloxy)pyridine dihydrochloride], the Ki [1] was 0.04 nM and the “MED Hot plate model (μmol/kg, i.p.)” value (mice) was “NS”.

Compound Cc1ccc(OC[C@@H]2CCN2)c(F)n1 [Example 117, 2-Fluoro-6-methyl-3-(2-(S)-azetidinylmethoxy)pyridine tosylate] has a Ki [1, 3] of 0.17 nM.

Work on CN1CC[C@H]1COc1ccc(C(F)F)nc1 [Example 113, 6-Difluoromethyl-3-((1-methyl-2-(S)-azetidinyl)methoxy)pyridine citrate] yielded a Ki [1, 3] of 0.17 nM.

In the case of Brc1cncc(OC[C@@H]2CCN2)c1 [Example 12, 5-((2S)-Azetidinylmethyloxy)-3-bromopyridine dihydrochloride], the Ki [1, 3] is reported as 0.26 nM and the “MED Hot plate model (μmol/kg, i.p.)” value (mice) is reported as “NS”.

With CCc1cc(OC[C@@H]2CCN2)cnc1C [Example 36, 6-Ethyl-6-methyl-3-((2S)-azetidinylmethoxy)pyridine hydrochloride] the Ki [1, 3] was 0.04 nM and the “MED Hot plate model (μmol/kg, i.p.)” value (mice) was “NS”.

Clc1ncccc1OC[C@@H]1CCN1 [Example 121, 2-Chloro-3-(2-(S)-azetidinylmethoxy)pyridine hydrochloride] gave a Ki [1, 3] of 2.3 nM.

With O=C(c1ccc([N+](=O)[O-])cc1)N1CC[C@@H]1COc1ccc(F)nc1 [Example 4-NO2C6H4CO] the “F* (%) efficiency of conversion” value [2] was 27.1%, the “AUD0.” value [2] was 18.76 ng·h/mL and the “Cmax” value [2] was 6.01 ng/mL. The “Tmax” value [2] was 0.8 h and the “t½” value [2] was 1.9 h.

For Cc1cc(OC[C@@H]2CCN2)cnc1F [Example 32, 5-((2S)-azetidinylmethoxy)-3-methyl-2-fluoropyridine benzoate], the Ki [1, 3] was 0.1 nM and the “MED Hot plate model (μmol/kg, i.p.)” value (mice) was “NS”.

Work on CCCc1cncc(OC[C@@H]2CCN2)c1 [Example 24, 5-Propyl-3-((2S)-azetidinylmethyloxy)lpyridine hydrochloride] yielded a Ki [1, 3] of 0.05 nM and a minimal effective dose (mice) of 62 µmol/kg.

For Cc1ncc(OC[C@@H]2CCN2)cc1Br [Example 34, 5-Bromo-6-methyl-3-((2S)-azetidinylmethoxy)pyridine dihydrochloride], the Ki [1, 3] was 0.02 nM and the minimal effective dose (mice) was 0.62 µmol/kg.

Work on C=Cc1cncc(OC[C@@H]2CCN2)c1 [Example 22, 5-Vinyl-3-((2S)-Azetidinylmethyloxy)lpyridine dihydrochloride] yielded a Ki [1, 3] of 0.97 nM.

With Cc1ccc(OC[C@@H]2CCN2)cn1 [Example 20, 5-((2S)-Azetidinylmethyloxy)-2-methylpyridine dihydrochloride] the Ki [1, 3] was 0.06 nM and the minimal effective dose (mice) was 0.62 µmol/kg.

With Clc1cncc(OC[C@@H]2CCN2)c1 [Example 21, 5-((2S)-Azetidinylmethyloxy)-3-chloropyridine dihydrochloride] the Ki [1, 3] was 0.04 nM and the “MED Hot plate model (μmol/kg, i.p.)” value (mice) was “NS”.

With Cc1cc(OC[C@H]2CCN2)cnc1Cl [Example 127, 2-Chloro-3-methyl-5-(2-(R)--azetidinylmethoxy)pyridine citrate] the Ki [1] was 0.06 nM.

In the case of O=C(c1ccc(Cl)cc1)N1CC[C@@H]1COc1ccc(F)nc1 [Example 4-ClC6H4CO], the “F* (%) efficiency of conversion” value [2] is reported as 26.9%, the “AUD0.” value [2] is reported as 18.61 ng·h/mL and the “Cmax” value [2] is reported as 4.54 ng/mL. For the same compound, the “Tmax” value [2] was 0.8 h and the “t½” value [2] was 2.5 h.

Work on Clc1cncc(OC[C@H]2CCN2)c1 [Example 114, 3-(2-(R)-Azetidinylmethoxy)-5-chloropyridine tosylate] yielded a Ki [1, 3] of 0.12 nM.

With O=C(c1ccc(F)cc1)N1CC[C@@H]1COc1ccc(F)nc1 [Example 4-FC6H4CO] the “F* (%) efficiency of conversion” value [2] was 13.5%, the “AUD0.” value [2] was 9.35 ng·h/mL and the “Cmax” value [2] was 3.25 ng/mL. For the same compound, the “Tmax” value [2] was 0.8 h and the “t½” value [2] was 1.6 h.

Fc1ccc(OC[C@@H]2CCN2)c(F)n1 [Example 116, 2.6-Difluoro-3-(2-(S)-azetidinylmethoxy)pyridine tosylate] gave a Ki [1, 3] of 0.34 nM.

Work on Brc1ccc(OC[C@H]2CCN2)cn1 [Example 128, 5-(2-(R)-azetidinylmethoxy)-2-bromo-pyridine tosylate] yielded a Ki [1, 3] of 0.17 nM.

C=Cc1cc(OC[C@H]2CCN2)cnc1F [Example 129, 5-((2R)-Azetidinylmethoxy)-2-fluoro-3-vinylpyridine tosylate] showed a Ki [1, 3] of 0.09 nM.

For Clc1ncccc1OC[C@H]1CCN1 [Example 97, 2-Chloro-3-(2-(R)-azetidinylmethoxy)pyridine tosylate], the Ki [1, 3] was 85 nM.

For O=C(c1ccccc1)N1CC[C@@H]1COc1ccc(F)nc1 [PhCO], the “F* (%) efficiency of conversion” value [2] was 27.3%, the “AUD0.” value [2] was 18.89 ng·h/mL and the “Cmax” value [2] was 6.31 ng/mL. The “Tmax” value [2] was 0.6 h and the “t½” value [2] was 1.8 h.

With COC(=O)c1ccc(C(=O)N2CC[C@@H]2COc2ccc(F)nc2)cc1 [4-MeO2CC6H4CO] the “F* (%) efficiency of conversion” value [2] was 61.2%, the “AUD0.” value [2] was 42.37 ng·h/mL and the “Cmax” value [2] was 10.31 ng/mL. The “Tmax” value [2] was 0.8 h and the “t½” value [2] was 1.8 h.

In the case of Fc1ncc(OC[C@H]2CCN2)cc1Br [Example 125, 5-bromo-6-fluoro-3-(2-(R)-azetidinylmethoxy)pyridine], the Ki [1] is reported as 0.04 nM.

For Cc1ccc(OC[C@H]2CCN2)cn1 [Example 115, 6-Methyl-3-(2-(R)-azetidinylmethoxy)pyridine], the Ki [1, 3] was 0.07 nM.

For N#Cc1ccc(OC[C@@H]2CCN2)cn1 [Example 123, 6-Cyano-3-(2(S)-azetidinylmethoxy)pyridine hydrochloride], the Ki [1, 3] was 1.9 nM.

Work on Cc1ccc(OC[C@H]2CCN2)c(F)n1 [Example 118, 2-Fluoro-6-methyl-3-(2-(R)-azetidinylmethoxy)pyridine tosylate] yielded a Ki [1, 3] of 4.8 nM.

For Fc1ncc(OCC2CCN2)cc1Cl (stereo not drawn) [Example 33, 5-((29)-azetidinylmethoxy)-3-chloro-2-fluoropyridine tosylate], the Ki [1, 3] was 0.04 nM.

For COc1ccc(C(=O)N2CC[C@@H]2COc2ccc(F)nc2)cc1 [Example 4-MeOC6H4CO], the “F* (%) efficiency of conversion” value [2] was 37.7%, the “AUD0.” value [2] was 26.09 ng·h/mL and the “Cmax” value [2] was 7.43 ng/mL. For the same compound, the “Tmax” value [2] was 0.8 h and the “t½” value [2] was 2.0 h.

With CCOc1cncc(OC[C@@H]2CCN2)c1 [Example 120, 5-Ethoxy-3-(2-(S)-azetidinylmethoxy)pyridine tosylate] the Ki [1, 3] was 0.04 nM.

Work on CCc1cc(OC[C@@H]2CCN2)cnc1F [Example 126, 5-ethyl-6-fluoro-3-(2-(S)-azetidinylmethoxy)pyridine] yielded a Ki [1, 3] of 0.07 nM.

With C=CCc1cncc(OC[C@@H]2CCN2)c1 [Example 130, 3-(2-(S)-azetidinylmethoxy)-5-(3-propenyl)pyridine hydrochloride] the Ki [1, 3] was 0.04 nM.

Work on Cc1ncc(OC[C@H]2CCN2)cc1Br [Example 124, 3-(2-(R)-azetidinylmethoxy)-5-bromo-6-methylpyridine tosylate] yielded a Ki [1, 3] of 0.03 nM.

For Cc1ccc(C(=O)N2CC[C@@H]2COc2ccc(F)nc2)cc1 [Example 4-MeC6H4CO], the “F* (%) efficiency of conversion” value [2] was 43.1%, the “AUD0.” value [2] was 29.85 ng·h/mL and the “Cmax” value [2] was 7.05 ng/mL. The “Tmax” value [2] was 0.8 h and the “t½” value [2] was 2.4 h.
